This is an account of results in patent publication US6673804B1, “Sulfonamide derivatives” (Sankyo Company, Limited, priority 1998, dated 2004).

One data set concerns the target aglycanase. Kind of data set: Aglycanase inhibition test (in vitro). In kind it is biochemical. Conditions: aglycanase from bovine nasal septum cartilage culture, aglycan-containing polyacrylamide particles, 37° C. for 2.5 hours. The method, then:
An aglycanase inhibition test can be conducted by, for example, measuring aglycanase activity in the presence or absence of a test compound according to the method of Nagase et al. (H. Nagase and J. F. Woessner, Analytical Biochemistry, vol. 107, 385-392, 1980).
The enzyme used for measurement of aglycanase activity can be extracted from mammalian cartilage tissue itself or from its cultured medium. Extraction is performed by combining various types of chromatography, and the activity of aglycanase in the purification process can be detected by adding substrate (aglycan) to an eluted fraction and testing whether or not the substrate is cleaved. Whether or not the substrate is cleaved can be determined by performing imnunoblotting for the reaction liquid using an antibody that binds to the epitope, CNLeNIEGE, that is produced by cleavage of aglycan (substrate) by aglycanase (enzyme). It should be noted that antibody that binds to CNLeNIEGE can be prepared according to the method of Sandy et al. (J. D. Sandy et al., Journal of Biological Chemistry, vol. 270, 2550-2556, 1995).
Bovine nasal septum cartilage was cultured for 7 days at 37° C. in the presence of 1 μm retinoic acid in DMEM [containing 20 mM N-2-hydroxyethyl-piperazine-N′-2-ethane sulfonic acid (HEPES), 0.005% bovine serum albumin (BSA), 5 μg/ml insulin-transferrin sodium selenite media supplement, 1% penicillin and 1% streptomycin] while changing the medium once a day. The culture liquid collected from day 3 to day 7 was subjected to chromatography [carrier: Q-sepharose (Pharmacia), mobile phase: 20 mM Tris-HCl buffer (pH 7.2) containing 5 mM calcium chloride] and the fraction that passed through the column was collected. This was then subjected to additional chromatography [carrier: Zn-chelating sepharose (Pharmacia), mobile phase: Tris-HCl buffer (pH 7.2) containing 5 mM calcium chloride and 0.5 M sodium chloride], followed by elution using imidazole as the mobile phase. The fraction of the resulting eluted fractions that was confirmed to have aglycanase activity was collected. Moreover, this was subjected to additional chromatography [carrier: LCA-agarose (Honen Corporation), mobile phase: 20 mM aqueous solution of 2-(N-morpholino)ethanesulfonic acid (pH 6.5) containing 5 mM calcium chloride and 0.25 M sodium chloride], followed by elution using 2-methylmannopyranoside as the mobile phase. The fraction of the resulting eluted fractions that was confirmed to have aglycanase activity was collected, and this fraction was used as the enzyme liquid for measurement of aglycanase activity.
Separate from the above, antibody that binds with CNLeNIEGE was prepared according to the method of Sandy et al. (J. D. Sandy et al., Journal of Biological Chemistry, vol. 270, 2550-2556, 1995), and this antibody was used in immunoblotting to detect aglycanase activity in the above-mentioned purification process of the aglycanase. Immunoblotting was performed in accordance with conventional methods.
Measurement of activity was performed using a modification of the protease activity measurement method that uses polyacrylamide particles of Nagase et al. (H. Nagase and J. F. Woessner, Analytical Biochemistry, vol. 107, 385-392, 1980).
The aglycan used for the substrate was isolated from bovine nasal septum cartilage in accordance with cesium chloride sedimentation equilibrium centrifugation (New Biochemical Experimentation Course, 3, Saccharides II, 4-7, Tokyo Kagaku Dojin Publishing, 1991). By using this aglycan, polyacrylamide particles containing aglycan were prepared in accordance with the method of Nagase et al. (H. Nagase and J. F. Woessner, Analytical Biochemistry, vol. 107, 385-392, 1980). Namely, aglycan (dry weight: 480 mg) was first added to 28 ml of liquid A [1 M Tris-HCl buffer (pH 8.5) containing 0.2% N,N,N′,N′-tetramethylethylenediamine (TEMED)] and the mixture was stirred at 4° C. for 1 hour. […]

For another data set, the target named is T1, MMP-13 (Homo sapiens, UniProt P45452).
T1 construct: made in house; host or cells: COS-1 cells (vector pcDL-SRα296, culture supernatant)
Kind of data set: MMP-13 inhibition test (in vitro). Conditions: recombinant active MMP-13, fluorescent substrate 20 μM, 1 hour at 37° C. In kind it is biochemical. An excerpt: MMP-13 exists in chondrocytes and chondrosarcoma cells, and the DNA sequence corresponding to the amino acid sequence of its precursor (proMMP-13) has been reported by Freije et al. (Freije, J. M. P., et al., J. Biol. Chem., vol. 269, 16766-16773, 1994). Therefore, proMMP-13 can be expressed by acquiring cDNA of proMMP-13 from chondrocytes and chondrosarcoma cells in accordance with conventional methods, by incorporating this into an ordinarily used vector, and by introducing this vector into suitable cells to transform the cells.
An MMP-13 inhibition test can be conducted by, for example, treating recombinant proMMP-13 obtained in the above manner with p-aminophenyl-mercuric(II) acetate (APMA) to convert proMMP-13 to active MMP-13, and then using this as enzyme to measure MMP-13 activity in the presence or absence of a test compound using a fluorescent substrate.
mRNA was isolated from human chondrosarcoma HCS-2/8, which is a chondrosarcoma cell line established by Takigawa et al. (Jpn. J. Cancer. Res., vol. 85, 364-371, 1994), in accordance with conventional methods, and cDNA of proMMP-13 was acquired by reverse transcription polymerase chain reaction (RT-PCR). 5′-[…]-3′ (Sequence No. 1 of the Sequence listing) and 5′-[…]-3′ (Sequence No. 2 of the Sequence listing), which contain the restriction enzyme cleavage site sacI or KpnI (portions indicated by underlining) were used for primers. […]
This enzyme solution and substrate (20 μM) were added to 50 mM Tris-HCl buffer (pH 7.5) containing 0.15 M sodium chloride, 10 mM calcium chloride, 0.05% Brij 35 and 0.02% sodium azide to bring the final volume to 0.1 ml, followed by reacting for 1 hour at 37° C. After stopping the reaction by adding 0.1 ml of 3% acetic acid, enzyme activity was determined by measuring with a fluorophotometer (Labsystems Fluoroskan II) at an excitation wavelength of 330 nm and emission wavelength of 390 nm. […]

A word on the IC50: it is the concentration that gives 50% inhibition. With `CN(C(CCn1c(=O)[nH]c2ccccc2c1=O)C(=O)NO)S(=O)(=O)c1ccc(Oc2ccccc2)cc1` (racemic) [Example 6, (±)-N-Hydroxy-Nα-methyl-Nα-(4-phenoxybenzenesulfonyl)-2-[2-(quinazolin-2,4-dione-3-yl)ethyl]glycinamide], the midpoint of inhibition against aglycanase, the IC50, lay at 7 nM. Same read-out and setting: under `Cc1[nH]c(=O)n(CCC(C(=O)NO)N(C)S(=O)(=O)c2ccc(Oc3ccccc3)cc2)c(=O)c1C` (racemic) [Example 18, (±)-2-[2-(5,6-Dimethylpyrimidin-2,4-dione-3-yl)ethyl]-N-hydroxy-Nα-methyl-Nα-(4-phenoxybenzenesulfonyl)glycinamide] stands 7.6 nM. In the case of `CN(C(CCn1c(=O)[nH]c2ccsc2c1=O)C(=O)NO)S(=O)(=O)c1ccc(Oc2ccccc2)cc1` (racemic) [Example 42, (±)-N-Hydroxy-Nα-methyl-Nα-(4-phenoxybenzensulfonyl)-2-[2-(thieno[3,2-d]pyrimidin-2,4-dione-3-yl)ethyl]glycinamide], the values for the IC50 at MMP-13 and on aglycanase were 0.47 nM and 5.4 nM, respectively. Usually melting point stands for the temperature, or range, at which the solid turns liquid. In turn, `CN(C(CCN1C(=O)c2cc(Cl)c(Cl)cc2C1=O)C(=O)NO)S(=O)(=O)c1ccc(Oc2ccccc2)cc1` (racemic) [Example 84, (±)-2-[2-(4,5-Dichlorophthalimido)ethyl]-N-hydroxy-Nα-methyl-Nα-(4-phenoxybenzenesulfonyl)glycinamide] came in with a melting point of 155 to 156 °C. As to `Cc1ccc2c(c1)C(=O)N(CCC(C(=O)NO)N(C)S(=O)(=O)c1ccc(Oc3ccccc3)cc1)C2=O` (racemic) [Example 86, (±)-N-Hydroxy-Nα-methyl-2-[2-(4-methylphthalimido)ethyl]-Nα-(4-phenoxybenzenesulfonyl)glycinamide], the melting point was in the range of 157 to 158 °C. In turn, `CN([C@H](CCN1C(=O)c2ccccc2C1=O)C(=O)NO)S(=O)(=O)c1ccc(Oc2ccccc2)cc1` [Example 72, N-Hydroxy-Nα-methyl-Nα-(4-phenoxybenzensulfonyl)-2(R)-(2-phthalimidoethyl)glycinamide] gave an IC50 against aglycanase of 4.9 nM.

For `CN([C@H](CCn1c(=O)[nH]c2ccccc2c1=O)C(=O)NO)S(=O)(=O)c1ccc(Oc2cccc(Cl)c2)cc1` [Example 139, Nα-[4-(3-Chlorophenoxy)benzenesulfonyl]-N-hydroxy-Nα-methyl-2(R)-[2-(quinazolin-2,4-dione-3-yl)ethyl]glycinamide], the half-inhibitory concentration (IC50) at MMP-13 is 0.43 nM; at aglycanase it was 3.7 nM. For the compound `CN([C@H](CCn1c(=O)[nH]c2ccsc2c1=O)C(=O)NO)S(=O)(=O)c1ccc(Oc2cccc(Cl)c2)cc1` [Example 140, Nα-[4-(3-Chlorophenoxy)benzenesulfonyl]-N-hydroxy-Nα-methyl-2(R)-[2-(thieno[3,2-d]pyrimidin-2,4-dione-3-yl)ethyl]glycinamide], the 50% inhibitory concentration (IC50) at MMP-13 is 0.32 nM; at aglycanase, 2.2 nM. The compound `CN([C@H](CCN1C(=O)c2ccccc2C1=O)C(=O)NO)S(=O)(=O)c1ccc(Oc2cccc(Cl)c2)cc1` [Example 141, Nα-[4-(3-Chlorophenoxy)benzenesulfonyl]-N-hydroxy-Nα-methyl-2(R)-(2-phthalimidoethyl)glycinamide] yielded an IC50 against aglycanase of 2.9 nM.
